# From US12171793B2, “Method of activating lactic acid bacteria” (INFANT BACTERIAL THERAPEUTICS AB, priority 2015, dated 2024)
# “Also recorded” adds a separate entry of the source.
# Tests used:
# [1] = tested on: Lactobacillus reuteri DSM 17938; test: Evaluation of activation time by turbidity (BioScreen) in simulated intestinal medium STMmod 3; assay type: cell-based; details: STMmod 3, 37° C., OD 600 nm; with citrate compared to without citrate; FIG. 3
# Procedure: The activation time in simulated intestinal medium (STMmod 3, see Table 4) of the two variants of lyophilized DSM 17938 (C and N) were analyzed using a computer-controlled incubator/reader/shaker (BioScreen C MBR) that measure the change in turbidity over time. The medium STMmod 3 was used to mimic the conditions in the intestine. To each well 200 μl of STMmod 3 was added. Thereafter different volumes (100, 60, 40, 30, 25 μl) of bacterial suspension (vials with lyophilized bacteria suspended in 1 ml dH2O) were added. Volumes were adjusted to 300 μl with dH2O. The analysis of each inoculation volume was done in triplicates. The BioScreen analysis was run at 37° C. for 24 hours with a 15 min interval between measurements (OD 600 nm), with the addition of a 10 s shaking step before each measuring point. [table]
# [2] = tested on: Lactobacillus reuteri DSM 17938; test: Growth of Lactobacillus reuteri in simulated intestinal substrate (SIS); assay type: cell-based; details: FIG. 1; GOS or glucose plus electron acceptor, 15 mM of each; 16 h at 37° C., anaerobic
# Procedure: The growth of L. reuteri DSM 17938 on different combinations of sugar and electron acceptors was evaluated in “Simulated intestinal substrate” (SIS). [table] Lactobacillus reuteri cells of strain DSM 17938 were first grown over night in MRS broth (Oxoid) at 37° C. After washing in phosphate-buffered saline (PBS) the bacteria were diluted 10 × in PBS. 10 μl of bacterial suspension was thereafter inoculated to 10 ml SIS (with addition of sugar and electron acceptor), and the bacteria were cultivated for 16 h at 37° C. during anaerobic conditions and no shaking. The growth of Lactobacillus reuteri DSM 17938 in SIS with lactose and citrate as the sugar-electron acceptor pair is evaluated in the same way as described above for GOS and citrate as the electron acceptor. The above described substrate (SIS) is used.
structure (smiles),measurement,setting,value
O=C(O)CC(O)(CC(=O)O)C(=O)O [Citrate],time to reach a 3% increase in OD (activation time),[1],shorter time; also recorded: shorten the activation time
same,growth of Lactobacillus reuteri DSM 17938 in simulated intestinal substrate,[2],highest effect
